ChEMBL document CHEMBL1208792, “A novel series of [3.2.1] azabicyclic biaryl ethers as alpha3beta4 and alpha6/4beta4 nicotinic receptor agonists” (Bioorg Med Chem Lett, 2010)

How the values were obtained:
[1] = Agonist activity at human alpha6/4beta4 nicotinic receptor expressed in human HEK cells assessed as intracellular calcium […] by FLIPR relative to control; type: functional, HEK293
[2] = biological target: Neuronal acetylcholine receptor; alpha4/beta2 (Homo sapiens, UniProt P17787+P43681); experiment: Displacement of [3H]epibatidine from alpha4beta2 nicotinic receptor expressed in human HEK293 cells; type: cell-based
Chain of Neuronal acetylcholine receptor; alpha4/beta2 (P17787 whole entry): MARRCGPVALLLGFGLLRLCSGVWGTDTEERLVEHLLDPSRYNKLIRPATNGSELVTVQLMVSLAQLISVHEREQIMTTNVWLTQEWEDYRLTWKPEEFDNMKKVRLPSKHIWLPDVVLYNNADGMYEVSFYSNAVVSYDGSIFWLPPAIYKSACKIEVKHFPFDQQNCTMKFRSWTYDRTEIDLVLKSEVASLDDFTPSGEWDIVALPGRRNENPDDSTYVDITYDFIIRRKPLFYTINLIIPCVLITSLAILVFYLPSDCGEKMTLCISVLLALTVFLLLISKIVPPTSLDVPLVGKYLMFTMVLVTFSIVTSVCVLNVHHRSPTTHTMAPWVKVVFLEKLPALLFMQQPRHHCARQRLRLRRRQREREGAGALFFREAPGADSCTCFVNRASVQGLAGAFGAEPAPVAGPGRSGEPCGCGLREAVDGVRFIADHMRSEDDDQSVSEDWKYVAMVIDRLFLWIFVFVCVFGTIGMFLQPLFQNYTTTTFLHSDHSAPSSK
Chain of Neuronal acetylcholine receptor; alpha4/beta2 (P43681 whole entry): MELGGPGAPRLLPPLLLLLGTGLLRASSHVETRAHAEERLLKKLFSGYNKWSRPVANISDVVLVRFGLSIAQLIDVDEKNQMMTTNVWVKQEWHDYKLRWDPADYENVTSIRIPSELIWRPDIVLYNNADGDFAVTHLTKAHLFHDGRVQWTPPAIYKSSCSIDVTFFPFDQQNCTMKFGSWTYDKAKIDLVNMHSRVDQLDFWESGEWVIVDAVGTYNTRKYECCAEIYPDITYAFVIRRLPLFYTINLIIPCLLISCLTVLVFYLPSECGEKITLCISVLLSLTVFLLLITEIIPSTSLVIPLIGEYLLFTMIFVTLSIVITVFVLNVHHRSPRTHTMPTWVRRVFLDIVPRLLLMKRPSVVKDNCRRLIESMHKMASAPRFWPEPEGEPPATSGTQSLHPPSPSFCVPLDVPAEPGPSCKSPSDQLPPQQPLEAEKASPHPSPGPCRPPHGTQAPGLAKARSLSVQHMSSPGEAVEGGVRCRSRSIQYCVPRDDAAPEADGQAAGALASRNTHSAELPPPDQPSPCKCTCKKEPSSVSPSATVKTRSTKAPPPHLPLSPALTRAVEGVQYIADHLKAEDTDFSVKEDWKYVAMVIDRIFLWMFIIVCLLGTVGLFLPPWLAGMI

[3] = biological target: T1, Neuronal acetylcholine receptor; alpha3/beta4 (Homo sapiens, UniProt P30926+P32297); experiment: Agonist activity at alpha3beta4 nicotinic receptor expressed in human HEK cells assessed as intracellular calcium efflux by FLIPR
T1 sequence (P30926 whole entry): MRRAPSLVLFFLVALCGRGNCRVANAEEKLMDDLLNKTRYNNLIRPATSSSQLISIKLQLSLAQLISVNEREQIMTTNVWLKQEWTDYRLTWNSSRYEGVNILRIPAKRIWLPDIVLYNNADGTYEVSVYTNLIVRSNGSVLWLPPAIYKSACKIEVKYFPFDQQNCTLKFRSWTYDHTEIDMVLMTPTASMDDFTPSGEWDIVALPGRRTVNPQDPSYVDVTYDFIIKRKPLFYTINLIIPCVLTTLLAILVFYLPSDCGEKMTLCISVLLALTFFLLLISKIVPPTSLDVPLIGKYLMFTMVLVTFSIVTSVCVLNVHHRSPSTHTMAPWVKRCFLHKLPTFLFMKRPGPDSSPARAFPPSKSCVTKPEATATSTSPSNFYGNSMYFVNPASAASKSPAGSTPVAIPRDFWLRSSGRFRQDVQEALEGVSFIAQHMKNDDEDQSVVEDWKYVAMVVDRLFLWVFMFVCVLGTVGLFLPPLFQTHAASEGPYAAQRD
T1 sequence (P32297 whole entry): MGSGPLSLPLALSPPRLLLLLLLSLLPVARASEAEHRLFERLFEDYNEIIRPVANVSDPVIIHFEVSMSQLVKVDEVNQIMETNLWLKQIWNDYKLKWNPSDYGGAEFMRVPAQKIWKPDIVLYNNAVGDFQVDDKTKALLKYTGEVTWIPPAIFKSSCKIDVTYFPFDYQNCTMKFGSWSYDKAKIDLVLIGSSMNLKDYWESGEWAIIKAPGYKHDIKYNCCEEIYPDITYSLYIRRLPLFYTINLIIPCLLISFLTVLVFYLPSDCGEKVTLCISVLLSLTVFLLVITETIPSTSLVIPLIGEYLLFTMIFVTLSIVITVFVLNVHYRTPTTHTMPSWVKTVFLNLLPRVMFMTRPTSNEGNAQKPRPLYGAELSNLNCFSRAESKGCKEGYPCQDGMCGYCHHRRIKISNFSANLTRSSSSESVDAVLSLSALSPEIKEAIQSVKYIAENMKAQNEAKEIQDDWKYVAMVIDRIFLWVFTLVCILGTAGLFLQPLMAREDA

[4] = biological target: Neuronal acetylcholine receptor subunit alpha-7 (Homo sapiens, UniProt P36544); experiment: Displacement of [3H]epibatidine from alpha7 nicotinic receptor expressed in human HEK293 cells; type: cell-based
Chain of Neuronal acetylcholine receptor subunit alpha-7 (P36544 whole entry): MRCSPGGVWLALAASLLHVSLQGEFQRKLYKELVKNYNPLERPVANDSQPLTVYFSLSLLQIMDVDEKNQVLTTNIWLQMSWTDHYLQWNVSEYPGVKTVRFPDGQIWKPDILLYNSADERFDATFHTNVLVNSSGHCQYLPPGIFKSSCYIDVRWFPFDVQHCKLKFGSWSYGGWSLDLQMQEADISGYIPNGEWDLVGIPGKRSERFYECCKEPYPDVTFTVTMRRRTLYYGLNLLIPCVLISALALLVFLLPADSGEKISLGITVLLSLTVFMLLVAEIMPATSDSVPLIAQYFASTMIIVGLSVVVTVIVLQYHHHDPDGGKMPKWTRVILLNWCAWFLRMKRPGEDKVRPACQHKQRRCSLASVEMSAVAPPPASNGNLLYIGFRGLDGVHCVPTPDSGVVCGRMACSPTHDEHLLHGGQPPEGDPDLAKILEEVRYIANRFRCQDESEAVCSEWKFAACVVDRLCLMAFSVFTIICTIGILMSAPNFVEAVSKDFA

[5] = Agonist activity at human alpha6/4beta4 nicotinic receptor expressed in human HEK cells assessed as intracellular calcium […] by FLIPR; type: functional, cell-based, HEK293; settings: read-out: EC50
[6] = biological target: T1, Neuronal acetylcholine receptor; alpha3/beta4; experiment: Displacement of [3H]epibatidine from alpha3beta4 nicotinic receptor expressed in human HEK293 cells; type: cell-based
[7] = test system: human MDR (P-glycoprotein); experiment: Efflux ratio of permeability from basolateral to apical side over apical to basolateral side of MDCK cells expressing human MDR gene; type: ADME, cell-based, Canis lupus familiaris; settings: dog, MDCK-MDR1
[8] = biological target: T1, Neuronal acetylcholine receptor; alpha3/beta4; experiment: Agonist activity at alpha3beta4 nicotinic receptor expressed in human HEK cells assessed as intracellular calcium […] by FLIPR relative to control; type: functional, cell-based; settings: HEK293
[9] = Displacement of [3H]epibatidine from alpha6/4beta4 nicotinic receptor expressed in human HEK293 cells; type: cell-based
[10] = biological target: Acetylcholine receptor; alpha1/beta1/delta/gamma (Homo sapiens, UniProt P02708+P07510+P11230+Q07001); experiment: Binding affinity to alpha-1-beta-gamma-delta nicotinic receptor; type: protein-complex assay
[11] = biological target: Voltage-gated inwardly rectifying potassium channel KCNH2 (Homo sapiens, UniProt Q12809); experiment: Displacement of [3H]dofetilide from human ERG expressed in HEK293 cells; type: cell-based
Chain of Voltage-gated inwardly rectifying potassium channel KCNH2 (Q12809 whole entry): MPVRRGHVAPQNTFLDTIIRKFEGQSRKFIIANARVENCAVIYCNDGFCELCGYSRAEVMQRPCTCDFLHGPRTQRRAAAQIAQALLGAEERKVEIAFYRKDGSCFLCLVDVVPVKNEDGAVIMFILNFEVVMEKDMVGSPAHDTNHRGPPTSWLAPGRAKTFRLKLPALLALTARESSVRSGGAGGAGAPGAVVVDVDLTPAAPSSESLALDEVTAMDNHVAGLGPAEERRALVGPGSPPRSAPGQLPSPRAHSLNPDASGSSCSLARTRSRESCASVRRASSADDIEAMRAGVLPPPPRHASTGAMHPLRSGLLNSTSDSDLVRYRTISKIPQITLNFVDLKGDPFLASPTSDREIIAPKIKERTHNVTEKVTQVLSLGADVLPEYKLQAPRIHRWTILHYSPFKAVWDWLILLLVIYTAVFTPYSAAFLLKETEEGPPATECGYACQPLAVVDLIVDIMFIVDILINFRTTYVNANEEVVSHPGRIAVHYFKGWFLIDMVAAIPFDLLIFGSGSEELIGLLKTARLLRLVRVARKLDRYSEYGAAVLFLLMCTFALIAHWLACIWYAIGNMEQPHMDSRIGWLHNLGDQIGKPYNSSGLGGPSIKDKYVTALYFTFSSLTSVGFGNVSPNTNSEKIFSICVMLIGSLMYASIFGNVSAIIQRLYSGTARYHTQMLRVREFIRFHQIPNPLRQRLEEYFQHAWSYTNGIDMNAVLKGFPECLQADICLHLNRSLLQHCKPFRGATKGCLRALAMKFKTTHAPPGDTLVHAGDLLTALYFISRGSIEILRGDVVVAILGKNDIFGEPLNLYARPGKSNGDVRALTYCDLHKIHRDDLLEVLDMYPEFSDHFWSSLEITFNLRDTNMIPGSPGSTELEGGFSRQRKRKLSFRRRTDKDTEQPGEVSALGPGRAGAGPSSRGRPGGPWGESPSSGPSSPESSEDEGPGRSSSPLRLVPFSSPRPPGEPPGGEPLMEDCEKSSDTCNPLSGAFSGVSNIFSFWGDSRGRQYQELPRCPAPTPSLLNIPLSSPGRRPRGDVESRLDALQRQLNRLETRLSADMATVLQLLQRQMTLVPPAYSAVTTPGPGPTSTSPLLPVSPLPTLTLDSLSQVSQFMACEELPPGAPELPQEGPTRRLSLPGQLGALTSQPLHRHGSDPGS

[12] = Apparent permeability from apical to basolateral side of MDCK cells; type: ADME, cell-based, Canis lupus familiaris; settings: dog

Compound	Efficacy [1] [%]	Ki ([2]; read-out: Ki) [nM]	EC50 [3] [nM]	Ki [4] [nM]	EC50 ([5]; Homo sapiens, HEK293) [nM]	Ki [6] [nM]	efflux ratio [7]	Efficacy [8] [%]	Ki [9] [nM]	Ki [10] [nM]	Ki ([11]; hek293)	Papp A→B [12] [×10⁻⁶ cm/s]	Ki ([2]; hek293)	Ki ([11]; read-out: Ki) [nM]	EC50 ([5]; hek293) [nM]
Cl.Fc1cncc(-c2ccccc2O[C@H]2C[C@@H]3CNC[C@H]2C3)c1 (racemic)	45	> 1500	316	> 13500	248	2.17	1.29	84.5	10.1	> 16900	Not Active	10	–	–	–
COc1ccncc1-c1ccccc1O[C@H]1C[C@@H]2CNC[C@H]1C2.Cl (racemic)	23	477	< 100	–	> 30000	0.882	–	49	1.77	–	–	–	–	–	–
NC(=O)c1cncc(-c2ccccc2O[C@@H]2C[C@H]3CNC[C@@H]2C3)c1 (stereo in doubt)	–	–	–	–	–	496	–	–	1130	–	–	–	Not Active	–	–
Cl.c1cncc(-c2ccccc2O[C@H]2C[C@@H]3CNC[C@H]2C3)c1 (racemic)	32.5	> 1310	57	–	53	1.3	1.75	–	3.8	–	–	30.3	–	2160	–
Cl.Oc1cncc(-c2ccccc2O[C@H]2C[C@@H]3CNC[C@H]2C3)c1 (racemic)	75	255	2.59	1580	–	0.186	5.84	–	0.425	5000	–	4.05	–	1580	4.3
CS(=O)(=O)Nc1cncc(-c2ccccc2O[C@H]2C[C@@H]3CNC[C@H]2C3)c1.Cl (racemic)	230	> 424	2.99	4750	3.15	0.243	–	–	0.241	> 13500	–	–	–	–	–
Cl.Nc1ccncc1-c1ccccc1O[C@H]1C[C@@H]2CNC[C@H]1C2 (racemic)	61	> 1040	33.6	–	265	0.957	–	97	2.05	4430	–	–	–	–	–
COc1cncc(-c2ccccc2O[C@H]2C[C@@H]3CNC[C@H]2C3)c1.Cl (racemic)	<20	> 309	32.7	–	28.9	94.1	1.76	11	9.01	–	Not Active	24.4	–	–	–
Cl.Fc1ccncc1-c1ccccc1O[C@H]1C[C@@H]2CNC[C@H]1C2 (racemic)	–	–	197	–	625	0.856	1.26	65	1.33	–	–	13.3	–	–	–
CS(=O)(=O)Nc1cncc(-c2ccccc2O[C@@H]2C[C@H]3CNC[C@@H]2C3)c1.Cl	182	2900	2.92	> 15000	2.27	1.33	4.65	122	3.73	> 15000	Not Active	0.84	–	–	–
Cl.Nc1cncc(-c2ccccc2O[C@H]2C[C@@H]3CNC[C@H]2C3)c1 (racemic)	107	> 575	33.9	> 15000	64.4	1.48	–	80.5	5.83	> 15000	–	–	–	–	–
CN1CCC[C@H]1c1cccnc1 [NICOTINE]	–	–	–	–	–	–	–	–	168	1480	–	–	–	–	–
CC(C)S(=O)(=O)Nc1cncc(-c2ccccc2O[C@H]2C[C@@H]3CNC[C@H]2C3)c1.Cl (racemic)	160	745	0.16	14600	98.5	0.126	1.49	57	0.202	4240	Not Active	0.56	–	–	–
CS(=O)(=O)Nc1ccncc1-c1ccccc1O[C@H]1C[C@@H]2CNC[C@H]1C2.Cl (racemic)	48	250	112	7590	4.3	0.382	–	117	5.21	> 15000	–	–	–	–	–
